Results from US20250346580A1, “NOVEL PYRIMIDINYL SULFONAMIDE DERIVATIVES” (Hoffmann-La Roche Inc., priority 2023, published 2025).
One block for each compound: values may come before it.

Experiments:
[1] = target: human GPR17 short isoform (Homo sapiens, UniProt Q13304); experiment: GPR17 cAMP assay (hGPR17 cAMP); assay type: cell-based; details: CHO-K1 cells stably expressing human GPR17 short isoform; antagonist mode with EC80 of MDL29,951, forskolin 15 μM, TR-FRET cAMP
Protocol: GPR17 cAMP Assay Protocol:
CHO-K1 cells stably expressing vector containing untagged human GPR17 short isoform (Roche) were cultured at 37° C./5% CO2 in DMEM (Dulbecco's Modified Eagle Medium):F-12 (1:1) supplemented with 10% foetal bovine serum and 400 μg/ml Geneticin.
Changes in intracellular cyclic adenosine monophosphate (cAMP) levels were quantified using the Nano-TRF Detection Assay kit (Roche Diagnostics, Cat. No. 05214386001). This assay allows for direct cAMP quantification in a homogeneous solution. cAMP is detected based on time-resolved fluorescence energy transfer (TR-FRET) and competitive binding of ruthenylated cAMP and endogenous cAMP to an anti-cAMP monoclonal antibody labeled with AlexaFluor-700. The Ruthenium complex serves as the FRET donor and transfers energy to AlexaFluor-700. The FRET signal is inversely proportional to the cAMP concentration.
CHO-GPR17S cells were detached with Accutase and resuspended in assay buffer consisting of Hank's Balanced Salt Solution (HBSS), 10 mM HEPES (4-(2-hydroxyethyl) piperazine-1-ethanesulfonic acid solution) and 0.1% bovine serum albumin (pH 7.4). The cells were seeded in black 384-well plates (Corning) at a density of 10'000 cells/20 μl assay buffer until the addition of compounds.
Test antagonist compounds were serially diluted in dimethyl sulfoxide (DMSO) and spotted in 384-well plates. The compounds were then diluted in HBSS buffer supplemented with an EC80 concentration of MDL29,951 (3-(2-Carboxy-4,6-dichloroindol-3-yl)propionic acid) (GPR17 agonist) plus 3-Isobutyl-1-methylxanthine (IBMX) (0.5 mM final concentration) and added to the cells at room temperature. Forskolin (15 μM final concentration) was added 5 minutes after the test compounds and the cells were incubated at room temperature for 30 minutes. The assay was stopped by adding cAMP detection mix (containing detergents for cell lysis) for 90 minutes at room temperature.
Cellular cAMP was measured using a Paradigm reader (Molecular Devices). The raw data was used to calculate the FRET signal based on the assay's P-factor as per cAMP kit instructions. The data was normalized to the maximal activity of a reference antagonist and dose response curves were fitted to the percent activity of the test compounds using a sigmoidal dose response model (Genedata Screener).

[2] = Microsome clearance assay, human; assay type: in vitro ADME; details: human microsomes 0.5 mg/mL plus NADPH, 37° C., test compound 1 microM; first value of cell
Protocol: (§1) Microsome Clearance Assay Protocol:
(§2) incubations at a test compound of […] in microsomes (0.5 mg/mL) plus cofactor NADPH are performed in 96 well plates at 37° C. on a TECAN (Tecan Group Ltd, Switzerland) automated liquid handling system. The final concentration of the test compound in the incubation is 1 microM. After a 10 minutes preincubation step of the test compound with the microsomes, the enzymatic reaction is started by the addition of cofactors. At 1, 3, 6, 9, 15, 25, 35 and 45 minutes, aliquots of the incubations are removed and quenched with 1:3 (v/v) acetonitrile containing internal standards. Samples are then cooled and centrifuged before analysis of the supernatant by LC-MS/MS.
(§3) Reference compounds were tested against exemplified compounds for their Microsome Clearance.

[3] = Microsome clearance assay, mouse; assay type: in vitro ADME; details: mouse microsomes 0.5 mg/mL plus NADPH, 37° C., test compound 1 microM; second value of cell
Protocol: as §1, §2, §3

[4] = Microsome clearance assay, rat; assay type: in vitro ADME; details: rat microsomes 0.5 mg/mL plus NADPH, 37° C., test compound 1 microM; third value of cell
Protocol: as §1, §2, §3

Chain of human GPR17 short isoform (Q13304 29-367): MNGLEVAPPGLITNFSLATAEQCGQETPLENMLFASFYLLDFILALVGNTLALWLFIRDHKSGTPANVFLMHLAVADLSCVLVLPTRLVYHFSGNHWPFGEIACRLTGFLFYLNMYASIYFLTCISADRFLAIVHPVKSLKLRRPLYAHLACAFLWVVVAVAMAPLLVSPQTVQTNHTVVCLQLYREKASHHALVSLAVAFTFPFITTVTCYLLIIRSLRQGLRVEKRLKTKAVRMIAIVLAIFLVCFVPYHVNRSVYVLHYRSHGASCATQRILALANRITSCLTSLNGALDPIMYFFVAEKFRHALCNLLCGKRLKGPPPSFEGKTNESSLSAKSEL

SMILES: COc1nc(NS(=O)(=O)c2c[nH]c(-c3ccccc3F)c2)nc(OC)c1OCCF [Example 38, N-[5-(2-fluoroethoxy)-4,6-dimethoxy-pyrimidin-2-yl]-5-(2-fluorophenyl)-1H-pyrrole-3-sulfonamide]
IC50 [1]: 124 nM

SMILES: COc1nc(NS(=O)(=O)c2c[nH]c(-c3ccccc3F)c2)nc(OC)c1OC(F)F [Example 39, N-[5-(difluoromethoxy)-4,6-dimethoxy-pyrimidin-2-yl]-5-(2-fluorophenyl)-1H-pyrrole-3-sulfonamide]
IC50 [1]: 354 nM

SMILES: COc1nc(NS(=O)(=O)c2c[nH]c(-c3ncccn3)c2)nc(OC)c1OCC(F)F [Example 43, N-[5-(2,2-difluoroethoxy)-4,6-dimethoxy-pyrimidin-2-yl]-5-pyrimidin-2-yl-1H-pyrrole-3-sulfonamide]
IC50 [1]: 1250 nM

SMILES: COc1nc(NS(=O)(=O)c2c[nH]c(-c3cccnn3)c2)nc(OC)c1OCC(F)F [Example 45, N-[5-(2,2-difluoroethoxy)-4,6-dimethoxy-pyrimidin-2-yl]-5-pyridazin-3-yl-1H-pyrrole-3-sulfonamide]
IC50 [1]: 253 nM

SMILES: COc1nc(NS(=O)(=O)c2c[nH]c(-c3ccncn3)c2)nc(OC)c1OCC(F)F [Example 47, N-[5-(2,2-difluoroethoxy)-4,6-dimethoxy-pyrimidin-2-yl]-5-pyrimidin-4-yl-1H-pyrrole-3-sulfonamide]
IC50 [1]: 1610 nM

SMILES: COc1nc(NS(=O)(=O)c2c[nH]c(-c3ncccc3C)c2)nc(OC)c1OCC(F)F [Example 49, N-[5-(2,2-difluoroethoxy)-4,6-dimethoxy-pyrimidin-2-yl]-5-(3-methyl-2-pyridyl)-1H-pyrrole-3-sulfonamide]
IC50 [1]: 122 nM

SMILES: COc1nc(NS(=O)(=O)c2c[nH]c(C3CCC3)c2)nc(OC)c1OC(F)F [Example 50, 5-cyclobutyl-N-[5-(difluoromethoxy)-4,6-dimethoxy-pyrimidin-2-yl]-1H-pyrrole-3-sulfonamide]
IC50 [1]: 748 nM

SMILES: COc1nc(NS(=O)(=O)c2c[nH]c(C3CCC3)c2)nc(OC)c1OCC(F)F [Example 51, 5-cyclobutyl-N-[5-(2,2-difluoroethoxy)-4,6-dimethoxy-pyrimidin-2-yl]-1H-pyrrole-3-sulfonamide]
IC50 [1]: 304 nM

SMILES: N#Cc1ccc(NS(=O)(=O)c2c[nH]c(-c3ncccc3F)c2)c(F)c1 [RE-B]
microsomal CLint at 1 µM [2]: 253 µL/min/mg
microsomal CLint at 1 µM [3]: 43 µL/min/mg
microsomal CLint at 1 µM [4]: 79 µL/min/mg

The remaining lines, values ahead:

IC50 [1]: 476 nM
Microsomal Clearance human [2]: 10 μL/min/mg protein
Microsomal Clearance mouse [3]: 21 μL/min/mg protein
Microsomal Clearance rat [4]: 81 μL/min/mg protein
SMILES: COc1nc(NS(=O)(=O)c2c[nH]c(-c3ccccc3)c2)nc(OC)c1OCC(F)F [Example 1, N-[5-(2,2-difluoroethoxy)-4,6-dimethoxy-pyrimidin-2-yl]-5-phenyl-1H-pyrrole-3-sulfonamide]

IC50 [1]: 85 nM
Microsomal Clearance human [2]: 10 μL/min/mg protein
Microsomal Clearance mouse [3]: 12 μL/min/mg protein
Microsomal Clearance rat [4]: 32 μL/min/mg protein
SMILES: COc1nc(NS(=O)(=O)c2c[nH]c(-c3ncccc3F)c2)nc(OC)c1OCCF [Example 7, N-[5-(2-fluoroethoxy)-4,6-dimethoxy-pyrimidin-2-yl]-5-(3-fluoro-2-pyridyl)-1H-pyrrole-3-sulfonamide]

IC50 [1]: 256 nM
Microsomal Clearance human [2]: 10 μL/min/mg protein
Microsomal Clearance mouse [3]: 10 μL/min/mg protein
Microsomal Clearance rat [4]: 50 μL/min/mg protein
SMILES: COc1nc(NS(=O)(=O)c2c[nH]c(-c3nccs3)c2)nc(OC)c1OC(F)F [Example 14, N-[5-(difluoromethoxy)-4,6-dimethoxy-pyrimidin-2-yl]-5-thiazol-2-yl-1H-pyrrole-3-sulfonamide]

IC50 [1]: 130 nM
SMILES: COc1nc(NS(=O)(=O)c2c[nH]c(-c3ccccc3F)c2)nc(OC)c1CC(F)F [Example 37, N-[5-(2,2-difluoroethyl)-4,6-dimethoxy-pyrimidin-2-yl]-5-(2-fluorophenyl)-1H-pyrrole-3-sulfonamide]

IC50 [1]: 540 nM
SMILES: COc1nc(NS(=O)(=O)c2c[nH]c(-c3ccccc3F)c2)nc(OC)c1OCC(F)F [Example 40, N-[5-(2,2-difluoroethoxy)-4,6-dimethoxy-pyrimidin-2-yl]-5-(2-fluorophenyl)-1H-pyrrole-3-sulfonamide]

IC50 [1]: 1420 nM
SMILES: COc1nc(NS(=O)(=O)c2c[nH]c(-c3cccn(C)c3=O)c2)nc(OC)c1OCC(F)F [Example 41, N-[5-(2,2-difluoroethoxy)-4,6-dimethoxy-pyrimidin-2-yl]-5-(2-keto-1-methyl-3-pyridyl)-1H-pyrrole-3-sulfonamide]

IC50 [1]: 1990 nM
SMILES: COc1nc(NS(=O)(=O)c2c[nH]c(-c3cnc(C)s3)c2)nc(OC)c1OCC(F)F [Example 42, N-[5-(2,2-difluoroethoxy)-4,6-dimethoxy-pyrimidin-2-yl]-5-(2-methylthiazol-5-yl)-1H-pyrrole-3-sulfonamide]

IC50 [1]: 2670 nM
SMILES: COc1nc(NS(=O)(=O)c2c[nH]c(-c3ncc(C)s3)c2)nc(OC)c1OCC(F)F [Example 44, N-[5-(2,2-difluoroethoxy)-4,6-dimethoxy-pyrimidin-2-yl]-5-(5-methylthiazol-2-yl)-1H-pyrrole-3-sulfonamide]

IC50 [1]: 77 nM
SMILES: COc1nc(NS(=O)(=O)c2c[nH]c(-c3ncccc3Cl)c2)nc(OC)c1OCC(F)F [Example 46, 5-(3-chloro-2-pyridyl)-N-[5-(2,2-difluoroethoxy)-4,6-dimethoxy-pyrimidin-2-yl]-1H-pyrrole-3-sulfonamide]

IC50 [1]: 1320 nM
SMILES: COc1nc(NS(=O)(=O)c2c[nH]c(-c3cnccn3)c2)nc(OC)c1OCC(F)F [Example 48, N-[5-(2,2-difluoroethoxy)-4,6-dimethoxy-pyrimidin-2-yl]-5-pyrazin-2-yl-1H-pyrrole-3-sulfonamide]

microsomal CLint at 1 µM [2]: 21 µL/min/mg
microsomal CLint at 1 µM [3]: 136 µL/min/mg
microsomal CLint at 1 µM [4]: 489 µL/min/mg
SMILES: COc1nc(OCC(F)F)c(F)nc1NS(=O)(=O)c1c[nH]c(-c2ccccc2)c1 [RE-A]

microsomal CLint at 1 µM [2]: 107 µL/min/mg
microsomal CLint at 1 µM [3]: 238 µL/min/mg
microsomal CLint at 1 µM [4]: 582 µL/min/mg
SMILES: O=S(=O)(Nc1cc(F)c(Br)cc1F)c1c[nH]c(-c2ncccc2F)c1 [RE-C]

microsomal CLint at 1 µM [2]: 10 µL/min/mg
microsomal CLint at 1 µM [3]: 35 µL/min/mg
microsomal CLint at 1 µM [4]: 207 µL/min/mg
SMILES: O=S(=O)(Nc1cc(F)c(OC(F)F)cc1F)c1c[nH]c(-c2nccs2)c1 [RE-D]
